Where only a bound is given, the exact number is not on record here.

For this assay, the target named is GCN2 (Homo sapiens (Human), UniProt Q9P2K8). The assay can be described thus: GCN2 Biochemical Assay (TR-FRET, GFP-eIF2S1 substrate phosphorylation). Conditions: read-out: IC50 (GCN2 Inhibitory Activity). An outline of the steps: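 TR-FRET readout (Ex 340, Em 490/520 nm) after 2–3 h with Tb-labelled phospho-eIF2S1 antibody in stop mix, following a 70 min room-temperature kinase step. Reaction: in-house GCN2, GFP-eIF2S1, ATP, tRNA in Tris pH 7.5 (2× stocks 1.6 nM, 50 nM, 0.2 mM); compounds tested at 10 concentrations, with a phospho-substrate artifact counter-plate.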
Chain of GCN2 (Q9P2K8 whole entry): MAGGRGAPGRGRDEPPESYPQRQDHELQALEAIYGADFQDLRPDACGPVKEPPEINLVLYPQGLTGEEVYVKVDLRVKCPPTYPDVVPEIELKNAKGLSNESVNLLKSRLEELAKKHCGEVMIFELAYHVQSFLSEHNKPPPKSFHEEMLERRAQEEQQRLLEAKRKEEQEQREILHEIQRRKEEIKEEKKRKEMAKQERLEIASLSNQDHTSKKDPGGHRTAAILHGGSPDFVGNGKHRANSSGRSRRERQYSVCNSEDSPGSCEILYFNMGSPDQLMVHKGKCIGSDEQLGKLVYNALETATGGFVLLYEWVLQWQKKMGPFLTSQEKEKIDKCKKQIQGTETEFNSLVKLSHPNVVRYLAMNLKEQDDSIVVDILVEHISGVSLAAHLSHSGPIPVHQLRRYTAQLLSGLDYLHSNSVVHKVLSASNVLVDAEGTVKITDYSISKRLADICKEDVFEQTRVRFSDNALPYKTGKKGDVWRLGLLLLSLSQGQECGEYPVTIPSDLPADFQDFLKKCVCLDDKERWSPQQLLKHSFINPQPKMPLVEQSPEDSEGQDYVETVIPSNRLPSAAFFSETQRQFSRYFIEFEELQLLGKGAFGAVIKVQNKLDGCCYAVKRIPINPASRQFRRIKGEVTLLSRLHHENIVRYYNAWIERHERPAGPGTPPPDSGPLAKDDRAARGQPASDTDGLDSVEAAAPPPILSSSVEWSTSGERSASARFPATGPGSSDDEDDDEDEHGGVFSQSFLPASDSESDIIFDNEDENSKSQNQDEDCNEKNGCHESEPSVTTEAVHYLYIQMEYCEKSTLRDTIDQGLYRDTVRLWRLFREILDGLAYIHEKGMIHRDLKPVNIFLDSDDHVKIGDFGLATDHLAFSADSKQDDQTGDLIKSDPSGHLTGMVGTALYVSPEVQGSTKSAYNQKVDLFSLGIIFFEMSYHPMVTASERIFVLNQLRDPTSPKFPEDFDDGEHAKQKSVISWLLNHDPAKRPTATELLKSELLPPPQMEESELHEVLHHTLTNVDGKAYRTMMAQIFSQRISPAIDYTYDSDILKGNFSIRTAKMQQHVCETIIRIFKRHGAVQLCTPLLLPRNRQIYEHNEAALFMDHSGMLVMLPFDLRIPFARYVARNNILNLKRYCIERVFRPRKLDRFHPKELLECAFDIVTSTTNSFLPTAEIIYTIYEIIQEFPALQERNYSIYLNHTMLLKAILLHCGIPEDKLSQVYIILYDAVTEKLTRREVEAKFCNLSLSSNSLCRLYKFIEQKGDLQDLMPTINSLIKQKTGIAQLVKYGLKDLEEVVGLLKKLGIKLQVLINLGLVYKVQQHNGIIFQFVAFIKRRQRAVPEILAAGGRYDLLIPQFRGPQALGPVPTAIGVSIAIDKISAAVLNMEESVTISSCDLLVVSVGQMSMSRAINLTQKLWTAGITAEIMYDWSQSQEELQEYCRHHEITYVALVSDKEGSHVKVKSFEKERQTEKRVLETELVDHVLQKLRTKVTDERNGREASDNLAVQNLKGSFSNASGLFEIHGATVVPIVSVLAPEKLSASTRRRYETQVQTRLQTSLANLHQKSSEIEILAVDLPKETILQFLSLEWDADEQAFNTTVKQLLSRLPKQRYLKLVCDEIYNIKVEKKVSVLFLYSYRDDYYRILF
In general terms: In TR-FRET formats the signal depends on donor and acceptor labels being close together.
As to `Cc1cnc(Nc2cc(C)n(C)n2)nc1-c1c[nH]c2c(NC(=O)CN3C[C@@H](F)[C@@H](Oc4ccnc(NC5CC5)n4)C3)cccc12` [Example 54, 2-((3S,4R)-3-((2-(cyclopropylamino)pyrimidin-4-yl)oxy)-4-fluoropyrrolidin-1-yl)-N-(3-(2-((1,5-dimethyl-1H-pyrazol-3-yl)amino)-5-methylpyrimidin-4-yl)-1H-indol-7-yl)acetamide], the IC50 (commonly the concentration that inhibits the measured activity by half) lay in the range of 10 to 100 nM.
The value for `Cc1cnc(Nc2cc(C)n(C)n2)nc1-c1c[nH]c2c(NC(=O)CN3CC[C@H](Oc4nccc(C(=O)O)n4)C3)cccc12` [Example 128, (S)-2-((1-(2-((3-(2-((1,5-dimethyl-1H-pyrazol-3-yl)amino)-5-methylpyrimidin-4-yl)-1H-indol-7-yl)amino)-2-oxoethyl)pyrrolidin-3-yl)oxy)pyrimidine-4-carboxylic acid] was 10 to 100 nM; that for `Cc1cnc(Nc2cc(C)n(C)n2)nc1-c1c[nH]c2c(NC(=O)CN3CC[C@H](Oc4nc(NCc5ccccc5)ncc4F)C3)cccc12` [Example 230, (S)-2-(3-((2-(benzylamino)-5-fluoropyrimidin-4-yl)oxy)pyrrolidin-1-yl)-N-(3-(2-((1,5-dimethyl-1H-pyrazol-3-yl)amino)-5-methylpyrimidin-4-yl)-1H-indol-7-yl)acetamide] was 10 to 100 nM; that for `Cc1cnc(Nc2cc(C)n(C)n2)nc1-c1c[nH]c2c(NC(=O)CN3CC[C@@H](C(=O)N4CCNC(=O)C4)C3)cccc12` [Example 66, (R)-N-(3-(2-((1,5-dimethyl-1H-pyrazol-3-yl)amino)-5-methylpyrimidin-4-yl)-1H-indol-7-yl)-2-(3-(3-oxopiperazine-1-carbonyl)pyrrolidin-1-yl)acetamide] was 100 to 1000 nM.
For the compound `Cc1cnc(Nc2cc(C)n(C)n2)nc1-c1c[nH]c2c(N3Cc4c(NC(=O)C5CCOC5)cccc4C3=O)cccc12` (stereo not shown) [Example 326, N-(2-(3-(2-((1,5-dimethyl-1H-pyrazol-3-yl)amino)-5-methylpyrimidin-4-yl)-1H-indol-7-yl)-1-oxoisoindolin-4-yl)tetrahydrofuran-3-carboxamide], the IC50 is less than 10 nM.
With `Cc1cnc(Nc2cc(C)n(C)n2)nc1-c1c[nH]c2c(N3Cc4c(cccc4-c4ccnc(N)n4)C3=O)cccc12` [Example 422, 4-(2-aminopyrimidin-4-yl)-2-(3-(2-((1,5-dimethyl-1H-pyrazol-3-yl)amino)-5-methylpyrimidin-4-yl)-1H-indol-7-yl)isoindolin-1-one], the IC50 was less than 10 nM.
In the case of `Cc1cnc(Nc2cc(C)n(C)n2)nc1C1=CCc2c1ccc(N(C)C)c2NC(=O)CN1CC[C@H](Oc2ccnc(NCC(F)(F)F)n2)C1` [Example 5, (S)-N-(3-(2-((1,5-dimethyl-1H-pyrazol-3-yl)amino)-5-methylpyrimidin-4-yl)-6-(dimethylamino)-1H-inden-7-yl)-2-(3-((2-((2,2,2-trifluoroethyl)amino)pyrimidin-4-yl)oxy)pyrrolidin-1-yl)acetamide], the IC50 is less than 10 nM.
The figure for `Cc1cnc(Nc2cc(C)n(C)n2)nc1-c1c[nH]c2c(N3Cc4c(NS(=O)(=O)C(C)C)cccc4C3=O)cccc12` [Example 344, N-(2-(3-(2-((1,5-dimethyl-1H-pyrazol-3-yl)amino)-5-methylpyrimidin-4-yl)-1H-indol-7-yl)-1-oxoisoindolin-4-yl)propane-2-sulfonamide] is less than 10 nM; for `Cc1cnc(Nc2cc(C)n(C)n2)nc1-c1c[nH]c2c(N3Cc4c(NC(=O)C5CCCC5)cccc4C3=O)cccc12` [Example 336, N-(2-(3-(2-((1,5-dimethyl-1H-pyrazol-3-yl)amino)-5-methylpyrimidin-4-yl)-1H-indol-7-yl)-1-oxoisoindolin-4-yl)cyclopentanecarboxamide] it is 10 to 100 nM; for `Cc1cnc(Nc2cc(C)n(C)n2)nc1-c1c[nH]c2c(NC(=O)CN3CC(C(=O)O)C3)cccc12` [Example 32, 1-(2-((3-(2-((1,5-dimethyl-1H-pyrazol-3-yl)amino)-5-methylpyrimidin-4-yl)-1H-indol-7-yl)amino)-2-oxoethyl)azetidine-3-carboxylic acid] it is 10 to 100 nM.
The value for `Cc1cnc(Nc2cc(C)n(C)n2)nc1-c1c[nH]c2c(N3Cc4c(cccc4-c4ccc5ccncc5c4)C3=O)cccc12` [Example 448, 2-(3-(2-((1,5-dimethyl-1H-pyrazol-3-yl)amino)-5-methylpyrimidin-4-yl)-1H-indol-7-yl)-4-(isoquinolin-7-yl)isoindolin-1-one] was less than 10 nM; that for `CCNC(=O)/C=C/c1cccc2c1CN(c1cccc3c(-c4nc(Nc5cc(C)n(C)n5)ncc4C)c[nH]c13)C2=O` [Example 364, (E)-3-(2-(3-(2-((1,5-dimethyl-1H-pyrazol-3-yl)amino)-5-methylpyrimidin-4-yl)-1H-indol-7-yl)-1-oxoisoindolin-4-yl)-N-ethylacrylamide] was less than 10 nM.
The figure for `Cc1cnc(Nc2cc(C)n(C)n2)nc1-c1c[nH]c2c(NC(=O)CN3CC=C(c4ccncc4)CC3)cccc12` [Example 34, 2-(3,6-dihydro-[4,4′-bipyridin]-1(2H)-yl)-N-(3-(2-((1,5-dimethyl-1H-pyrazol-3-yl)amino)-5-methylpyrimidin-4-yl)-1H-indol-7-yl)acetamide] is 100 to 1000 nM; for `Cc1cnc(Nc2cc(C)n(C)n2)nc1-c1c[nH]c2c(NC(=O)CN3CC[C@H](Oc4cc(N5CCCC5)nc(N)n4)C3)cccc12` [Example 167, (S)-2-(3-((2-amino-6-(pyrrolidin-1-yl)pyrimidin-4-yl)oxy)pyrrolidin-1-yl)-N-(3-(2-((1,5-dimethyl-1H-pyrazol-3-yl)amino)-5-methylpyrimidin-4-yl)-1H-indol-7-yl)acetamide] it is 10 to 100 nM.
With `Cc1cnc(Nc2cc(C)n(C)n2)nc1-c1c[nH]c2c(N3Cc4c(cccc4-c4ccncc4CO)C3=O)cccc12` [Example 471], the IC50 is less than 10 nM.
With `Cc1cnc(Nc2cc(C)n(C)n2)nc1-c1c[nH]c2c(NC(=O)CN3CC[C@H](Oc4cc(C(F)(F)F)nc(N)n4)C3)cccc12` [Example 99, (S)-2-(3-((2-amino-6-(trifluoromethyl)pyrimidin-4-yl)oxy)pyrrolidin-1-yl)-N-(3-(2-((1,5-dimethyl-1H-pyrazol-3-yl)amino)-5-methylpyrimidin-4-yl)-1H-indol-7-yl)acetamide], the IC50 fell in the range of 10 to 100 nM.
For the compound `Cc1cnc(Nc2cc(C)n(C)n2)nc1-c1c[nH]c2c(NC(=O)CN3CC[C@H](Oc4cnccn4)C3)cccc12` [Example 79, (S)-N-(3-(2-((1,5-dimethyl-1H-pyrazol-3-yl)amino)-5-methylpyrimidin-4-yl)-1H-indol-7-yl)-2-(3-(pyrazin-2-yloxy)pyrrolidin-1-yl)acetamide], the IC50 is less than 10 nM.
The value for `Cc1cnc(Nc2cc(C)n(C)n2)nc1-c1c[nH]c2c(N3Cc4c(C#Cc5ccc(N)cc5)cccc4C3=O)cccc12` [Example 357, 4-((4-aminophenyl)ethynyl)-2-(3-(2-((1,5-dimethyl-1H-pyrazol-3-yl)amino)-5-methylpyrimidin-4-yl)-1H-indol-7-yl)isoindolin-1-one] was 10 to 100 nM; that for `Cc1cnc(Nc2cc(C)n(C)n2)nc1-c1c[nH]c2c(NC(=O)CN3CC[C@H](Oc4ccnc(NCC5CC5)n4)C3)cccc12` [Example 213, (S)-2-(3-((2-((cyclopropylmethyl)amino)pyrimidin-4-yl)oxy)pyrrolidin-1-yl)-N-(3-(2-((1,5-dimethyl-1H-pyrazol-3-yl)amino)-5-methylpyrimidin-4-yl)-1H-indol-7-yl)acetamide] was less than 10 nM.
The value for `Cc1cnc(Nc2cc(C)n(C)n2)nc1-c1c[nH]c2c(NC(=O)CN3CC[C@H](Oc4cc(C(=O)NC5CC5)on4)C3)cccc12` [Example 124, (S)-N-cyclopropyl-3-((1-(2-((3-(2-((1,5-dimethyl-1H-pyrazol-3-yl)amino)-5-methylpyrimidin-4-yl)-1H-indol-7-yl)amino)-2-oxoethyl)pyrrolidin-3-yl)oxy)isoxazole-5-carboxamide] was less than 10 nM; that for `Cc1cnc(Nc2cc(C)n(C)n2)nc1-c1c[nH]c2c(NC(=O)CN3CC[C@H](Oc4ccnc(NCCCO)n4)C3)cccc12` [Example 206, (S)-N-(3-(2-((1,5-dimethyl-1H-pyrazol-3-yl)amino)-5-methylpyrimidin-4-yl)-1H-indol-7-yl)-2-(3-((2-((3-hydroxypropyl)amino)pyrimidin-4-yl)oxy)pyrrolidin-1-yl)acetamide] was less than 10 nM.
The value for `Cc1cnc(Nc2cc(C)n(C)n2)nc1-c1c[nH]c2c(NC(=O)CN3CC[C@H](Oc4nc(N(C)C)ncc4F)C3)cccc12` [Example 231, (S)-N-(3-(2-((1,5-dimethyl-1H-pyrazol-3-yl)amino)-5-methylpyrimidin-4-yl)-1H-indol-7-yl)-2-(3-((2-(dimethylamino)-5-fluoropyrimidin-4-yl)oxy)pyrrolidin-1-yl)acetamide] was 10 to 100 nM; that for `Cc1cnc(Nc2cc(C)n(C)n2)nc1-c1c[nH]c2c(NC(=O)CN3C[C@@H](F)[C@@H](O)C3)cccc12` [Example 50, N-(3-(2-((1,5-dimethyl-1H-pyrazol-3-yl)amino)-5-methylpyrimidin-4-yl)-1H-indol-7-yl)-2-((3R,4S)-3-fluoro-4-hydroxypyrrolidin-1-yl)acetamide] was 10 to 100 nM.
`Cc1cnc(Nc2cc(C)n(C)n2)nc1-c1c[nH]c2c(N3Cc4c(cccc4-c4ccc(O)nc4)C3=O)cccc12` [Example 401, 2-(3-(2-((1,5-dimethyl-1H-pyrazol-3-yl)amino)-5-methylpyrimidin-4-yl)-1H-indol-7-yl)-4-(6-hydroxypyridin-3-yl)isoindolin-1-one]: the IC50 is less than 10 nM.
The value for `Cc1cnc(Nc2cc(C)n(C)n2)nc1-c1c[nH]c2c(NC(=O)CN3CC[C@H](Oc4ccncn4)C3)cccc12` [Example 78, (S)-N-(3-(2-((1,5-dimethyl-1H-pyrazol-3-yl)amino)-5-methylpyrimidin-4-yl)-1H-indol-7-yl)-2-(3-(pyrimidin-4-yloxy)pyrrolidin-1-yl)acetamide] was less than 10 nM.

These data come from patent publication US20240025884A1 (Dong-A ST Co., Ltd., priority 2022, published 2024).
